Source: US8466157B2, “Proteasome inhibitors having chymotrypsin-like activity” (University of South Florida, priority 2009, dated 2013)
pIC50: −log10 of the molar value. Several values for one entry are separate records, joined by “and”; a condition that tells them apart may be missing. Identical values can stand only once. Like-named read-outs stand apart in the source and are kept apart here.

Target: T1, chymotrypsin-like activity of the purified rabbit 20S proteasome (Oryctolagus cuniculus, UniProt G1T4Q9)
T1 sequence (G1T4Q9 1-263): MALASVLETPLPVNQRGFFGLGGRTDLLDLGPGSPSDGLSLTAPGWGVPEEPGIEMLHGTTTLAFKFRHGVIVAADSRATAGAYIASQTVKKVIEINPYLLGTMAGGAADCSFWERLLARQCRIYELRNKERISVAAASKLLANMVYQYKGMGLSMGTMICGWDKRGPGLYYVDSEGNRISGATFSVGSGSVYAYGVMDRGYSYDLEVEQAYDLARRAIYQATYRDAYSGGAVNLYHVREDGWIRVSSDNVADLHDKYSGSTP
Experiment: 20S proteasome inhibition assay, fluorogenic substrate Suc-Leu-Leu-Val-Tyr-AMC;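 note: enzyme and 20 µM substrate incubated 1 h at 37 °C in Tris-HCl buffer pH 7.6, fluorogenic read-out, inhibition calculated against vehicle control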
Assay type: biochemical
Details: for proteasome inhibitory activity, SAR statement in words: chymotrypsin-like activity, compared with lead or analogue

[1] = 30 μM, runs M-1096, M-1098, M-1099
[2] = individual determinations (runs M-1096, M-1098, M-1099, AK or dated), read-out: Chymotrypsin-like Activity IC50
[3] = mean of the individual determinations, read-out: Chymotrypsin-like Activity IC50 (μM), mean ± spread (n)

Experimental: 20S Proteasome Inhibition Assay
In our work, we used chymotrypsin-like substrate Suc-Leu-Leu-Val-Tyr-AMC to test the proteasome inhibition activity of the synthesized compounds.
The assay was conducted by using a fluorogenic peptide as substrate to test synthesized compounds for inhibitory activity against the chymotrypsin-like activity of the purified rabbit 20S proteasome. Briefly, 70 ng of purified 20S proteasome was incubated with 20 μM Suc-Leu-Leu-Val-Tyr-AMC for 1 hour at 37° C. in 100 μl of assay buffer (50 mM Tris-HCl, pH 7.6) with or without inhibitors. […] The inhibitory activity of the compounds was calculated based on vehicle control.

Row | Molecule | pIC50 [2] | IC50 [2] | also measured
1 | O=S(=O)(Nc1cc(Cl)c(O)c2ccccc12)c1cccs1 [YG1-012, N-(3-chloro-4-hydroxynaphthalen-1-yl)thiophene-2-sulfonamide] | < 4.52 and 4.35 and 4.44 |  | Chymotrypsin-like Activity Inhibition at 30 μM [1]: 41% and 45%; inhibition at 30 µM [1]: 33%; Chymotrypsin-like Activity Inhib at 100 μM (100 μM): 97%; inhibition at 100 µM (100 μM, read-out: Chymotrypsin-like Activity Inhib at 100 μM): 82%
2 | CCOC(=O)CSC1=CC(=O)c2ccccc2C1=O [YG1-059, Ethyl 2-(1,4-dioxo-1,4-dihydronaphthalen-2-ylthio)acetate] | < 4.00 |  | inhibition at 30 µM [1]: 49%
3 | N-(3-(1-methyl-1H-tetrazol-5-ylthio)-4-oxonaphthalen-1(4H)-ylidene)thiophene-2-sulfonamide [YG1-158-1] | 5.61 and 5.14 and 5.10 and 5.01 and < 5.00 and 5.91 and 5.74 |  | IC50 [3]: 5.08 µM
4 | CN(C)C(=O)CCSC1=C/C(=N\S(=O)(=O)c2cccs2)c2ccccc2C1=O [HL4-078-1, N,N-dimethyl-3-(1-oxo-4-(thiophen-2-ylsulfonylimino)-1,4-dihydronaphthalen-2-ylthio)propanamide] | 5.33 and 5.02 and 5.07 and < 5.00 |  | IC50 [3]: 8.1 µM
5 | O=C(O)CS(=O)(=O)c1cc(NS(=O)(=O)c2cccs2)c2ccccc2c1O [YG1-134, 2-(1-hydroxy-4-(thiophene-2-sulfonamido)naphthalen-2-ylsulfonyl)acetic acid] | < 5.00 |  | proteasome inhibitory activity, SAR statement in words: loss or reduction of the inhibitory activity
6 | CNC(=O)CCSc1cc(NS(=O)(=O)c2cccs2)c2ccccc2c1O [HL4-100-2, 3-(1-hydroxy-4-(thiophene-2-sulfonamido)naphthalen-2-ylthio)-N-methylpropanamide] | < 5.00 |  | 
7 | O=C(O)CSc1cc(NS(=O)(=O)c2ccc(Cl)cc2)c2ccccc2c1O [YG2-034-1, 2-(4-(4-chlorophenylsulfonamido)-1-hydroxynaphthalen-2-ylthio)acetic acid] | < 5.00 and 5.46 and 5.38 |  | 
8 | O=C(O)CSc1cc(NS(=O)(=O)c2ccccc2)c2ccccc2c1O [YG1-117, 2-(1-hydroxy-4-(phenylsulfonamido)naphthalen-2-ylthio)acetic acid] | 6.17 and 5.57 and 5.54 and 5.72 and 5.66 |  | pIC50 (value quoted in running text / FIG. 11, read-out: IC50 against chymotrypsin-like proteasome activity): 5.68
9 | CCOC(=O)CSC1=C/C(=N\S(=O)(=O)c2cccs2)c2ccccc2C1=O [YG1-094] | 5.80 and < 5.00 and 5.55 and 5.52 and 5.82 and 5.60 |  | IC50 [3]: 2.28 µM
10 | Nc1ccc(SCC(=O)O)c2ccccc12 [YG3-005, 2-(4-aminonaphthalen-1-ylthio)acetic acid] | < 5.00 |  | 
11 | CCSc1cc(NS(=O)(=O)c2cccs2)c2ccccc2c1O [YG2-087-1, N-(3-(ethylthio)-4-hydroxynaphthalen-1-yl)thiophene-2-sulfonamide] |  |  | proteasome inhibitory activity, SAR statement in words: the inhibitory activity totally lost
12 | O=C(CCSC1=C/C(=N\S(=O)(=O)c2cccs2)c2ccccc2C1=O)NC1CC1 [HL4-078-3, N-cyclopropyl-3-(1-oxo-4-(thiophen-2-ylsulfonylimino)-1,4-dihydronaphthalen-2-ylthio)propanamide] |  | 5.5 µM and 8.65 µM and > 10 µM (2×) | IC50 [3]: 8.05 µM
13 | O=C(O)COc1cc(NS(=O)(=O)c2cccs2)c2ccccc2c1O [YL2-030, 2-(1-hydroxy-4-(thiophene-2-sulfonamido)naphthalen-2-yloxy)acetic acid] | < 5.00 |  | proteasome inhibitory activity, SAR statement in words: diminished the inhibitory activity
14 | COC(=O)CCSc1cc(NS(=O)(=O)c2cc(Cl)c(Cl)s2)c2ccccc2c1O [HL4-098-3, Methyl-3-(4-(4,5-dichlorothiophene-2-sulfonamido)-1-hydroxynaphthalen-2-ylthio)propanoate] | 6.09 and 5.82 and 6.05 |  | 
15 | CC(C)(C)OC(=O)CC1C(=O)C(=O)c2ccccc2C1=O (centres unmarked) [YL2-015 4th spot] | < 5.00 |  | 
16 | CC(C)(C)OC(=O)COC1=C/C(=N\S(=O)(=O)c2cccs2)c2ccccc2C1=O [YL2-023, tert-Butyl-2-(1-oxo-4-(thiophen-2-ylsulfonylimino)-1,4-dihydronaphthalen-2-yloxy)acetate] | < 5.00 |  | 
17 | CN(C)C(=O)CCSc1cc(NS(=O)(=O)c2cccs2)c2ccccc2c1O [HL4-100-1, 3-(1-hydroxy-4-(thiophene-2-sulfonamido)naphthalen-2-ylthio)-N,N-dimethylpropanamide] | < 5.00 |  | 
18 | N-(3-(ethylthio)-4-hydroxynaphthalen-1-yl)thiophene-2-sulfonamide [YG2-087-1] | < 5.00 |  | 
19 | O=C(CCSc1cc(NS(=O)(=O)c2cccs2)c2ccccc2c1O)NC1CC1 [HL4-100-3, N-cyclopropyl-3-(1-hydroxy-4-(thiophene-2-sulfonamido)naphthalen-2-ylthio)propanamide] | 5.07 and 5.22 and < 5.00 |  | IC50 [3]: 7.3 µM
20 | CCOC(=O)CSC1=C(SCC(=O)OCC)C(=O)c2ccccc2C1=O [YG1-017] | < 4.52 and 4.32 and < 4.00 |  | Chymotrypsin-like Activity Inhib at 100 μM (100 μM): 57% and 36%
21 | CCOC(=O)CSc1cc(NS(=O)(=O)c2ccc([N+](=O)[O-])cc2)c2ccccc2c1O [YG1-148F5, Ethyl 2-(1-hydroxy-4-(4-nitrophenylsulfonamido)naphthalen-2-ylthio)acetate] | 6.09 and 5.34 and 5.27 |  | proteasome inhibitory activity, SAR statement in words: slightly enhanced the activity
22 | CNC(=O)CCSC1=C/C(=N\S(=O)(=O)c2cccs2)c2ccccc2C1=O [HL4-078-2, N-methyl-3-(1-oxo-4-(thiophen-2-ylsulfonylimino)-1,4-dihydronaphthalen-2-ylthio)propanamide] |  | 8.1 µM and > 10 µM (2×) | 

Row | Molecule | pIC50 [2] | IC50 [2] | also measured
23 | O=C(O)CSc1ccc(NS(=O)(=O)c2cccs2)c2ccccc12 [YG3-007, 2-(4-(thiophene-2-sulfonamido)naphthalen-1-ylthio)acetic acid] | < 5.00 |  | 
24 | O=S(=O)(Nc1cc(Br)c(O)c2ccccc12)c1cccs1 [YG1-034, N-(3-bromo-4-hydroxynaphthalen-1-yl)thiophene-2-sulfonamide] | < 4.52 and < 4.00 and 4.55 |  | 
25 | O=C(O)COc1ccc(NS(=O)(=O)c2cccs2)c2ccccc12 [YG2-083, 2-(4-(thiophene-2-sulfonamido)naphthalen-1-yloxy)acetic acid] | < 5.00 |  | 
26 | CCSC1=C/C(=N\S(=O)(=O)c2cccs2)c2ccccc2C1=O [YG2-086-1, N-(3-(ethylthio)-4-oxonaphthalen-1(4H)-ylidene)thiophene-2-sulfonamide] | 5.03 and 5.01 |  | 
27 | CCOC(=O)CSC1=C/C(=N\S(=O)(=O)Cc2ccc(Cl)cc2)c2ccccc2C1=O [YG2-019, Ethyl 2-(4-(4-chlorobenzylsulfonylimino)-1-oxo-1,4-dihydronaphthalen-2-ylthio)-acetate] |  | 6.9 µM and 7.6 µM and > 10 µM (4×) | IC50 [3]: 7.25 µM
28 | CCOC(=O)CSC1=C/C(=N\S(=O)(=O)c2ccc(C)cc2)c2ccccc2C1=O [YG2-014, Ethyl 2-(1-oxo-4-(tosylimino)-1,4-dihydronaphthalen-2-ylthio)acetate] | 5.40 and 5.33 and 5.38 and < 5.00 |  | IC50 [3]: 4.3 µM
29 | O=C1C(N2CCN(c3ccccn3)CC2)=C/C(=N\S(=O)(=O)c2cccs2)c2ccccc21 [YG1-130] | < 5.00 |  | 
30 | COC(=O)CCSc1cc(NS(=O)(=O)c2cccs2)c2ccccc2c1O [YG1-107] | 5.64 and 5.65 and 5.18 and 5.41 and 5.15 and 5.11 |  | 
31 | O=C(O)CCCOc1ccc(NS(=O)(=O)c2cccs2)c2ccccc12 [YG2-094, 4-(4-(thiophene-2-sulfonamido)naphthalen-1-yloxy)butanoic acid] | < 5.00 |  | 
32 | CCOC1=C/C(=N\S(=O)(=O)c2cccs2)c2ccccc2C1=O [YG1-122, N-(3-ethoxy-4-oxonaphthalen-1(4H)-ylidene)thiophene-2-sulfonamide] | < 5.00 |  | 
33 | CN(C)C1=C/C(=N\S(=O)(=O)c2cccs2)c2ccccc2C1=O [YG1-125, N-(3-(dimethylamino)-4-oxonaphthalen-1(4H)-ylidene)thiophene-2-sulfonamide] | < 5.00 |  | 
34 | CCOC(=O)CSc1cc(NS(=O)(=O)c2cccs2)c2ccccc2c1O [YG1-094-2] | 5.57 and 5.02 |  | 
35 | CC(C)(C)OC(=O)COc1cc(NS(=O)(=O)c2cccs2)c2ccccc2c1O [YL2-025, tert-Butyl-2-(1-hydroxy-4-(thiophene-2-sulfonamido)naphthalen-2-yloxy)acetate] | < 5.00 |  | 
36 | CCOC(=O)CSc1cc(NS(=O)(=O)c2cccs2)c2ccccc2c1O [9a, Ethyl 2-(1-hydroxy-4-(thiophene-2-sulfonamido)naphthalen-2-ylthio)acetate] |  |  | proteasome inhibitory activity, SAR statement in words: reduced compared to acid analogues
37 | O=S(=O)(Nc1cc(SCCO)c(O)c2ccccc12)c1cccs1 [YG1-087-2, N-(4-hydroxy-3-(2-hydroxyethylthio)naphthalen-1-yl)thiophene-2-sulfonamide] | < 5.00 |  | proteasome inhibitory activity, SAR statement in words: the inhibitory activity totally lost
38 | O=C1CSc2cc(NS(=O)(=O)c3cccs3)c3ccccc3c2O1 [YG2-120, N-(2-oxo-2,3-dihydronaphtho[1,2-b][1,4]oxathiin-6-yl)thiophene-2-sulfonamide] | 5.96 and 5.75 |  | 
39 | CCOC(=O)CS(=O)(=O)c1cc(NS(=O)(=O)c2cccs2)c2ccccc2c1O [YG1-133, Ethyl 2-(1-hydroxy-4-(thiophene-2-sulfonamido)naphthalen-2-ylsulfonyl)acetate] |  | 8.2 µM and > 10 µM (2×) | 
40 | O=C1C=C(O)C(=O)c2ccccc21 [S.M. of YL2-013, 2-hydroxynaphthalene-1,4-dione] | < 5.00 |  | 
41 | COC(=O)CCSC1=C/C(=N\S(=O)(=O)c2cccs2)c2ccccc2C1=O [YG1-112] |  | 2.2 µM and 5.9 µM and 6.1 µM and > 10 µM (2×) and 6 µM and 3 µM | IC50 [3]: 4.64 µM
42 | O=C1C(Cl)=C/C(=N\S(=O)(=O)c2cccs2)c2ccccc21 [YG2-133-2] | 5.37 and 5.56 |  | 
43 | O=C(O)c1cccc(NC2=C/C(=N\S(=O)(=O)c3cccs3)c3ccccc3C2=O)c1 [YG1-174, 3-(1-oxo-4-(thiophen-2-ylsulfonylimino)-1,4-dihydronaphthalen-2-ylamino)-benzoic acid] | < 5.00 |  | 
